Source: patent publication US11420958B2, “Aryl and heteroaryl substituted indole compounds” (BRISTOL-MYERS SQUIBB COMPANY, priority 2017, dated 2022)
pIC50: −log10 of the molar value.

Assays:
Type in all cases: cell-based
human TLR7 = human TLR7 (Homo sapiens (Human), UniProt Q9NYK1); experiment: TLR7 inhibition reporter assay (HEK-Blue, SEAP); details: HEK-Blue cells overexpressing human TLR7, gardiquimod 7.5 μM stimulation
Procedure, shortened: (§1)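 SEAP read-out via detection medium after 22 h at 37 °C, 5% CO2; percent inhibition relative to agonist-plus-DMSO and known-inhibitor wells. Agonists: TLR7 gardiquimod 7.5 μM, TLR8 R848 15.9 μM, TLR9 ODN2006 5 nM (final). Compound range 0.05 nM–50 μM, 30 min pre-treatment.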

human TLR8 = human TLR8 (Homo sapiens (Human), UniProt Q9NR97); experiment: TLR8 inhibition reporter assay (HEK-Blue, SEAP); details: HEK-Blue cells overexpressing human TLR8, R848 15.9 μM stimulation
Chain of human TLR8 (Q9NR97 27-1041): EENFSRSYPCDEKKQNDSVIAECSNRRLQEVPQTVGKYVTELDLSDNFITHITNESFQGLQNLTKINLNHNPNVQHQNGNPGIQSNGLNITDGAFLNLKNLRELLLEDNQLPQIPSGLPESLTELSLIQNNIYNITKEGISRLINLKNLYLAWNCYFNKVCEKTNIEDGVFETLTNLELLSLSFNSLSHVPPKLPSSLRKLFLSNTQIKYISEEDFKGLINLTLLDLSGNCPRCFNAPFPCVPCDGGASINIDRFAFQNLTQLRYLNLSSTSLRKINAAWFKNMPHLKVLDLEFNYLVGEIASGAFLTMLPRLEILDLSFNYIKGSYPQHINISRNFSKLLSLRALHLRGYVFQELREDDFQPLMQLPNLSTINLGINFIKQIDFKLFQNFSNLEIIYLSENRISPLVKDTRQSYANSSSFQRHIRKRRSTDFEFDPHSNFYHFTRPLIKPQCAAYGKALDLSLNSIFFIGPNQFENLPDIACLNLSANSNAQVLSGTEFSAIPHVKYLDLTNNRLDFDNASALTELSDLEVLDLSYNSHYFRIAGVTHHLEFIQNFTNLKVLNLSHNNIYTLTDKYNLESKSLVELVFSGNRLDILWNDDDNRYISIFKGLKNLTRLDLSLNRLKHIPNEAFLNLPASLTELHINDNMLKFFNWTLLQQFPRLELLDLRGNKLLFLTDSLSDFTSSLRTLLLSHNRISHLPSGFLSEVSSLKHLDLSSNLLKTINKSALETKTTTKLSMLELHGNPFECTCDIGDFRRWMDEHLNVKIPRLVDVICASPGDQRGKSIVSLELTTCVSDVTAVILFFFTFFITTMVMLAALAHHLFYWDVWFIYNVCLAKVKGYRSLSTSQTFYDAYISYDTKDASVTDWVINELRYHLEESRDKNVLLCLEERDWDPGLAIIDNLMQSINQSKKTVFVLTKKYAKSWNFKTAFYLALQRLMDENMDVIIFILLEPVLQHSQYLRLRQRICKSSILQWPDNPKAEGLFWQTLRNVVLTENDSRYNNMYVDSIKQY
Procedure, shortened: as §1

human TLR9 = human TLR9 (Homo sapiens (Human), UniProt Q9NR96); experiment: TLR9 inhibition reporter assay (HEK-Blue, SEAP); details: HEK-Blue cells overexpressing human TLR9, ODN2006 5 nM stimulation
Chain of human TLR9 (Q9NR96 26-1032): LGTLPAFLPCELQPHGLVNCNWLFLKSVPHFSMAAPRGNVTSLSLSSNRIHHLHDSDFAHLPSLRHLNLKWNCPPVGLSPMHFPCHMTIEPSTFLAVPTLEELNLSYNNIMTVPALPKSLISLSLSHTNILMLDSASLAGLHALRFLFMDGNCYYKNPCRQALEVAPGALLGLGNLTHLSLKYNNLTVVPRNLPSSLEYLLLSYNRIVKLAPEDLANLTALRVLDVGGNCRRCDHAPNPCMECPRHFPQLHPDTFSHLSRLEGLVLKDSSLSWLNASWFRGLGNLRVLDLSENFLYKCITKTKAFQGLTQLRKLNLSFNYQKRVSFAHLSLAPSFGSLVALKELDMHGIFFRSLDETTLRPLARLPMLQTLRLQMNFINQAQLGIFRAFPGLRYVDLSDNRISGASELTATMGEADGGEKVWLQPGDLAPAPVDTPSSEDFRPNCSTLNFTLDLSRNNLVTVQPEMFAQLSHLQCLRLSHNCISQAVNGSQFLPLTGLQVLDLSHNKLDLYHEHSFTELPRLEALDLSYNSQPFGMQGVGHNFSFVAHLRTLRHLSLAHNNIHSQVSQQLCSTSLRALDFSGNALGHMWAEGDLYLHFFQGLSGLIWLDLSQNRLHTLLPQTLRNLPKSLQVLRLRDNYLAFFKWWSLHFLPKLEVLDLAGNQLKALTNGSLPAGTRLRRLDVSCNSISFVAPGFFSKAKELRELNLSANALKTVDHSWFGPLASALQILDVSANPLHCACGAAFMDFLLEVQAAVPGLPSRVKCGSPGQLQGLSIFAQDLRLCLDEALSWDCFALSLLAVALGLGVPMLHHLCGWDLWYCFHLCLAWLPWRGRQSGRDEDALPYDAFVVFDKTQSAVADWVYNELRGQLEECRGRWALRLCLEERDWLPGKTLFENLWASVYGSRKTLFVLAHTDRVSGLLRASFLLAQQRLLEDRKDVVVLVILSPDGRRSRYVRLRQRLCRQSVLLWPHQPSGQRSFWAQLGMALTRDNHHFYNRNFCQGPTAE
Procedure, shortened: as §1

Chain of human TLR7 (Q9NYK1 27-1049): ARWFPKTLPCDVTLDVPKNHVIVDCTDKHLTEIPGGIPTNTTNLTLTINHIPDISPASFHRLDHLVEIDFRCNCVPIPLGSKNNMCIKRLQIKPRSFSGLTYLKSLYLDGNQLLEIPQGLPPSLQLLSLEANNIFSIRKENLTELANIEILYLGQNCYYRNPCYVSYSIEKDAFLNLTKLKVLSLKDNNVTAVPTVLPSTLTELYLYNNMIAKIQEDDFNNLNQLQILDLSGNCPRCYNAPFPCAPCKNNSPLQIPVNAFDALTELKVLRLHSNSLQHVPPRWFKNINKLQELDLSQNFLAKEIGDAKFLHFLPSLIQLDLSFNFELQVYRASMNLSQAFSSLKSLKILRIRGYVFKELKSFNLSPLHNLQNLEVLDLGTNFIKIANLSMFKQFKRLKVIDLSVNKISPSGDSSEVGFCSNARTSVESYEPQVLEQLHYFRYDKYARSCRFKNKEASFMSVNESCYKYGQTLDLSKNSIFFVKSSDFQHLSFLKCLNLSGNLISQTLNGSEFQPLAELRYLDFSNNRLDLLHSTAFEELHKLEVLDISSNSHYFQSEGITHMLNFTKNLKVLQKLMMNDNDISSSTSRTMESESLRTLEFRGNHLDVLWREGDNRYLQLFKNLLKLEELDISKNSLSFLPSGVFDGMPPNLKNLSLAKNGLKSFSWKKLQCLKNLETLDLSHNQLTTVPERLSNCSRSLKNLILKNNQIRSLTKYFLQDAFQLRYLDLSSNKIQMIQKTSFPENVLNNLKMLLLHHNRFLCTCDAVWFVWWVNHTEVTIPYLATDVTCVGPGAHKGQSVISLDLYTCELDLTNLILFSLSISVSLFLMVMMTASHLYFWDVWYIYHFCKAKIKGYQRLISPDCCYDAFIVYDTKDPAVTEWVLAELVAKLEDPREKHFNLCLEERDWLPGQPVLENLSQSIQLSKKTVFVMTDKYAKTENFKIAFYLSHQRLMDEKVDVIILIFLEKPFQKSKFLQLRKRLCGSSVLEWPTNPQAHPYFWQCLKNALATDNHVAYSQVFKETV

Compound CC(C)c1c(-c2ccnc3[nH]ncc23)[nH]c2ccc(-c3nnc(CN4CCOCC4)o3)cc12 [Example 152, 4-((5-(3-isopropyl-2-(1H-pyrazolo[3,4-b]pyridin-4-yl)-1H-indol-5-yl)-1,3,4-oxadiazol-2-yl)methyl)morpholine] has a pIC50 (human TLR7) of 5.63, a pIC50 (human TLR8) of 6.33 and a pIC50 (human TLR9) of less than 4.30.
In the case of CC(C)c1c(-c2ccnc3n[nH]cc23)[nH]c2ccc(-c3nccs3)cc12 [Example 181, 2-(3-isopropyl-2-(2H-pyrazolo[3,4-b]pyridin-4-yl)-1H-indol-5-yl)thiazole], the pIC50 (human TLR7) was 6.17, the pIC50 (human TLR8) was 7.44 and the pIC50 (human TLR9) was 4.45.
In the case of Cc1cc(-c2[nH]c3ccc(-c4nnc([C@@H]5Cc6ccccc6CN5)o4)cc3c2C(C)C)ccn1 [Example 81, (S)-2-(3-isopropyl-2-(2-methylpyridin-4-yl)-1H-indol-5-yl)-5-(1,2,3,4-tetrahydroisoquinolin-3-yl)-1,3,4-oxadiazole], the pIC50 (human TLR7) was 6.11, the pIC50 (human TLR8) was 7.14 and the pIC50 (human TLR9) was less than 4.30.
Work on CNCCc1nnc(-c2ccc3[nH]c(-c4ccnc(C)c4)c(C(C)C)c3c2)o1 [Example 142, 2-(5-(3-isopropyl-2-(2-methylpyridin-4-yl)-1H-indol-5-yl)-1,3,4-oxadiazol-2-yl)-N-methylethan-1-amine] yielded a pIC50 (human TLR7) of 7.60, a pIC50 (human TLR8) of 8.77 and a pIC50 (human TLR9) of 6.21.
Cc1cc(-c2[nH]c3ccc(-c4cc(F)c5nc(C)cn5c4)cc3c2C(C)C)cc(C)n1 [Example 366, 6-(2-(2,6-dimethylpyridin-4-yl)-3-isopropyl-1H-indol-5-yl)-8-fluoro-2-methylimidazo[1,2-a]pyridine] gave a pIC50 (human TLR7) of 7.20, a pIC50 (human TLR8) of 7.08 and a pIC50 (human TLR9) of 4.94.
Cc1cc(-c2[nH]c3ccc(-c4csc(N5CCCCC5)n4)cc3c2C(C)C)cc(C)n1 [Example 350, 4-(2-(2,6-dimethylpyridin-4-yl)-3-isopropyl-1H-indol-5-yl)-2-(piperidin-1-yl)thiazole] showed a pIC50 (human TLR7) of 6.13, a pIC50 (human TLR8) of 6.16 and a pIC50 (human TLR9) of less than 4.30.
For COc1ccc(-c2[nH]c3ccc(-c4cnc(N5CCN(C(C)C)CC5)cc4C)cc3c2C(C)C)cc1OC [Example 420, 2-(3,4-dimethoxyphenyl)-3-isopropyl-5-(6-(4-isopropylpiperazin-1-yl)-4-methylpyridin-3-yl)-1H-indole], the pIC50 (human TLR7) was 6.48, the pIC50 (human TLR8) was 8.33 and the pIC50 (human TLR9) was 6.16.
Work on CCc1c(-c2ccc(OC)c(OC)c2)[nH]c2ccc(-c3noc(C4CCNC4)n3)cc12 (stereo not drawn) [Example 450, 3-(2-(3,4-dimethoxyphenyl)-3-ethyl-1H-indol-5-yl)-5-(pyrrolidin-3-yl)-1,2,4-oxadiazole] yielded a pIC50 (human TLR7) of 6.92, a pIC50 (human TLR8) of 7.72 and a pIC50 (human TLR9) of 5.77.
Compound Cc1cc(-c2[nH]c3ccc(-c4nnc([C@H]5CCNC5)o4)cc3c2C(C)C)ccn1 [Example 146, (S)-2-(3-isopropyl-2-(2-methylpyridin-4-yl)-1H-indol-5-yl)-5-(pyrrolidin-3-yl)-1,3,4-oxadiazole] has a pIC50 (human TLR7) of 7.82, a pIC50 (human TLR8) of 8.52 and a pIC50 (human TLR9) of 6.19.
Compound Cc1cc(-c2[nH]c3ccc(-c4nnc(C5CCCN(C(C)C)C5)[nH]4)cc3c2C(C)C)cc(C)n1 (stereo not drawn) [Example 340, 2-(2,6-dimethylpyridin-4-yl)-3-isopropyl-5-(5-(1-isopropylpiperidin-3-yl)-4H-1,2,4-triazol-3-yl)-1H-indole] has a pIC50 (human TLR7) of 8.40, a pIC50 (human TLR8) of 8.44 and a pIC50 (human TLR9) of 6.58.
Cc1cc(-c2[nH]c3ccc(-c4nnc(C[C@@H]5CCCN5)o4)cc3c2C(C)C)ccn1 [Example 71, (S)-2-(3-isopropyl-2-(2-methylpyridin-4-yl)-1H-indol-5-yl)-5-(pyrrolidin-2-ylmethyl)-1,3,4-oxadiazole] was tested, and the pIC50 (human TLR7) was 7.41, the pIC50 (human TLR8) was 8.85 and the pIC50 (human TLR9) was 5.16.
With CCc1c(-c2ccc(OC)c(OC)c2)[nH]c2ccc(-c3noc(C4CCN(C(C)C)CC4)n3)cc12 [Example 445, 3-(2-(3,4-dimethoxyphenyl)-3-ethyl-1H-indol-5-yl)-5-(1-isopropylpiperidin-4-yl)-1,2,4-oxadiazole] the pIC50 (human TLR7) was 6.47, the pIC50 (human TLR8) was 7.43 and the pIC50 (human TLR9) was 5.73.
Cc1cc(-c2[nH]c3ccc(-c4nnc(C5CCN(Cc6ccccc6)CC5)[nH]4)cc3c2C(C)C)ccn1 [Example 163, 5-(5-(1-benzylpiperidin-4-yl)-4H-1,2,4-triazol-3-yl)-3-isopropyl-2-(2-methylpyridin-4-yl)-1H-indole] gave a pIC50 (human TLR7) of 7.48, a pIC50 (human TLR8) of 8.07 and a pIC50 (human TLR9) of 6.16.
Cc1cc(-c2[nH]c3ccc(-c4nnc(C5CCC(C(F)(F)F)CC5)o4)cc3c2C(C)C)ccn1 (stereo not drawn) [Example 78, 2-(3-isopropyl-2-(2-methylpyridin-4-yl)-1H-indol-5-yl)-5-(4-(trifluoromethyl)cyclohexyl)-1,3,4-oxadiazole] showed a pIC50 (human TLR7) of 5.57, a pIC50 (human TLR8) of 6.27 and a pIC50 (human TLR9) of less than 4.30.
With Cc1cc(-c2[nH]c3ccc(-c4cc5c(s4)CN(C(C)C)CC5)cc3c2C(C)C)cc(C)n1 [Example 325, 2-(2-(2,6-dimethylpyridin-4-yl)-3-isopropyl-1H-indol-5-yl)-6-isopropyl-4,5,6,7-tetrahydrothieno[2,3-c]pyridine] the pIC50 (human TLR7) was 7.96, the pIC50 (human TLR8) was 9.30 and the pIC50 (human TLR9) was 6.55.
With COc1ccc(-c2[nH]c3ccc(-c4nnc(CNCCOC(C)C)o4)cc3c2C(C)C)cc1OC [Example 114, N-((5-(2-(3,4-dimethoxyphenyl)-3-isopropyl-1H-indol-5-yl)-1,3,4-oxadiazol-2-yl)methyl)-2-isopropoxyethan-1-amine] the pIC50 (human TLR7) was 6.41, the pIC50 (human TLR8) was 6.28 and the pIC50 (human TLR9) was less than 4.30.
Work on Cc1cc(-c2[nH]c3ccc(-c4nc(C(=O)NCC(C)(C)N5CCOCC5)co4)cc3c2C(C)C)cc(C)n1 [Example 289, 2-(2-(2,6-dimethylpyridin-4-yl)-3-isopropyl-1H-indol-5-yl)-N-(2-methyl-2-morpholinopropyl)oxazole-4-carboxamide] yielded a pIC50 (human TLR7) of 7.00, a pIC50 (human TLR8) of 8.00 and a pIC50 (human TLR9) of 5.68.
In the case of COc1ccc(-c2[nH]c3ccc(-c4ccc(OCCCN(C)C)nc4)cc3c2C(C)C)cc1OC [Example 421, 3-((5-(2-(3,4-dimethoxyphenyl)-3-isopropyl-1H-indol-5-yl)pyridin-2-yl)oxy)-N,N-dimethylpropan-1-amine], the pIC50 (human TLR7) was 7.20, the pIC50 (human TLR8) was 7.92 and the pIC50 (human TLR9) was 5.56.
For COc1ccc(-c2[nH]c3ccc(-c4nnc([C@@H]5CCCNC5)o4)cc3c2CC(F)(F)F)cc1OC [Example 56, (R)-2-(2-(3,4-dimethoxyphenyl)-3-(2,2,2-trifluoroethyl)-1H-indol-5-yl)-5-(piperidin-3-yl)-1,3,4-oxadiazole], the pIC50 (human TLR7) was 7.33, the pIC50 (human TLR8) was 7.60 and the pIC50 (human TLR9) was 5.90.
For COc1ccc(-c2[nH]c3ccc(-c4ccc(-c5cccc(CN(C)C)c5)cc4)cc3c2C(C)C)cc1OC [Example 374, 1-(4′-(2-(3,4-dimethoxyphenyl)-3-isopropyl-1H-indol-5-yl)-[1,1′-biphenyl]-3-yl)-N,N-dimethylmethanamine], the pIC50 (human TLR7) was 6.37, the pIC50 (human TLR8) was 6.50 and the pIC50 (human TLR9) was less than 4.30.
Cc1cn2cc(-c3[nH]c4ccc(-c5ccc(N6CCN(C)CC6)nc5)cc4c3C(C)C)ccc2n1 [Example 333, 6-(3-isopropyl-5-(6-(4-methylpiperazin-1-yl)pyridin-3-yl)-1H-indol-2-yl)-2-methylimidazo[1,2-a]pyridine] was tested, and the pIC50 (human TLR7) was 7.85, the pIC50 (human TLR8) was 7.04 and the pIC50 (human TLR9) was 6.94.
In the case of CCc1c(-c2ccc(OC)c(OC)c2)[nH]c2ccc(-c3noc(CCC4CCNCC4)n3)cc12 [Example 447, 3-(2-(3,4-dimethoxyphenyl)-3-ethyl-1H-indol-5-yl)-5-(2-(piperidin-4-yl)ethyl)-1,2,4-oxadiazole], the pIC50 (human TLR7) was 6.13, the pIC50 (human TLR8) was 6.70 and the pIC50 (human TLR9) was 5.46.
In the case of COc1ccc(-c2[nH]c3ccc(-c4cccc(-c5ccc6nonc6c5)c4)cc3c2C(C)C)cc1OC [Example 409, 5-(3-(2-(3,4-dimethoxyphenyl)-3-isopropyl-1H-indol-5-yl)phenyl)benzo[c][1,2,5]oxadiazole], the pIC50 (human TLR7) was 5.89, the pIC50 (human TLR8) was 6.37 and the pIC50 (human TLR9) was less than 4.30.
Compound CCc1c(-c2ccc(OC)c(OC)c2)[nH]c2ccc(-c3noc(C4CCN(Cc5ccccc5)CC4)n3)cc12 [Example 444, 5-(1-benzylpiperidin-4-yl)-3-(2-(3,4-dimethoxyphenyl)-3-ethyl-1H-indol-5-yl)-1,2,4-oxadiazole] has a pIC50 (human TLR7) of 5.50, a pIC50 (human TLR8) of 6.35 and a pIC50 (human TLR9) of 4.95.
For Cc1cc(-c2[nH]c3ccc(-c4ccc(NC(=O)CN(C)C)nc4)cc3c2C(C)C)ccn1 [Example 198, 2-(dimethylamino)-N-(5-(3-isopropyl-2-(2-methylpyridin-4-yl)-1H-indol-5-yl)pyridin-2-yl)acetamide], the pIC50 (human TLR7) was 7.59, the pIC50 (human TLR8) was 8.52 and the pIC50 (human TLR9) was 6.18.
Work on Cc1cc(-c2[nH]c3ccc(-c4nnc(CC5CCCCN5)o4)cc3c2C(C)C)ccn1 (stereo not drawn) [Example 138, 2-(3-isopropyl-2-(2-methylpyridin-4-yl)-1H-indol-5-yl)-5-(piperidin-2-ylmethyl)-1,3,4-oxadiazole] yielded a pIC50 (human TLR7) of 7.59, a pIC50 (human TLR8) of 8.85 and a pIC50 (human TLR9) of 6.27.
With CC(C)c1c(-c2ccnc(N)c2)[nH]c2ccc(-c3nc(C(=O)NC4CCN(C(C)C)CC4)co3)cc12 [Example 160, 2-(2-(2-aminopyridin-4-yl)-3-isopropyl-1H-indol-5-yl)-N-(1-isopropylpiperidin-4-yl)oxazole-4-carboxamide] the pIC50 (human TLR7) was 6.92, the pIC50 (human TLR8) was 7.64 and the pIC50 (human TLR9) was 5.41.
In the case of Cc1cc(-c2[nH]c3ccc(-c4nnc(C5CCN(CC(=O)N(C)C)CC5)[nH]4)cc3c2C(C)C)ccn1 [Example 185, 2-(4-(5-(3-isopropyl-2-(2-methylpyridin-4-yl)-1H-indol-5-yl)-4H-1,2,4-triazol-3-yl)piperidin-1-yl)-N,N-dimethylacetamide], the pIC50 (human TLR7) was 7.08, the pIC50 (human TLR8) was 8.48 and the pIC50 (human TLR9) was 5.12.
